Measurements as given in ChEMBL document CHEMBL5303304, “EUbOPEN Chemogenomics Library - IncuCyte” (2023).

Key:
Format in all cases: toxicity, cell-based
[1] = system: U2OS; test: Incucyte cell viability with U2OS; conditions: human, 10 µM, compound concentration 10 uM
[2] = system: Fibroblast; test: Incucyte cell viability with human fibroblast; conditions: 10 µM, compound concentration 10 uM
[3] = system: HEK-293T; test: Incucyte cell viability with HEK293T; conditions: human, 10 µM, compound concentration 10 uM
Further: unitless GR value; below 1 slowed growth and below 0 cell loss.

| Compound | Growth Rate ([1]; 0 h, replicate number 2) | Growth Rate ([1]; 6 h, replicate number 1) | Growth Rate ([1]; 6 h, replicate number 2) | Growth Rate ([1]; 12 h, replicate number 2) | Growth Rate ([1]; 18 h, replicate number 1) | Growth Rate ([2]; 6 h, replicate number 1) | Growth Rate ([2]; 6 h, replicate number 2) | Growth Rate ([3]; 6 h, replicate number 1) | Growth Rate ([3]; 6 h, replicate number 2) | Growth Rate ([3]; 12 h, replicate number 1) | Growth Rate ([3]; 12 h, replicate number 2) | Growth Rate ([3]; 18 h, replicate number 2) | Growth Rate ([3]; 24 h, replicate number 2) | Growth Rate ([1]; 12 h, replicate number 1) | Growth Rate ([1]; 18 h, replicate number 2) | Growth Rate ([1]; 24 h, replicate number 2) | Growth Rate ([2]; 12 h, replicate number 2) | Growth Rate ([2]; 18 h, replicate number 2) | Growth Rate ([2]; 24 h, replicate number 2) | Growth Rate ([1]; 0 h, replicate number 1) | also measured |
| --- | --- | --- | --- | --- | --- | --- | --- | --- | --- | --- | --- | --- | --- | --- | --- | --- | --- | --- | --- | --- | --- |
| Cn1cc(-c2cnc3ccc4ccc(CS(=O)(=O)NCc5ccccn5)cc4c(=O)c3c2)cn1 [MK-8033] | 0.2 | 0.9 | 0.76 | 0.75 | 0.88 | 0.98 | -0.01 | 0.24 | 0 | 0.39 | 0.34 | 0.63 | 0.78 |  |  |  |  |  |  |  | Growth Rate ([1]; 24 h, replicate number 1): 0.81; Growth Rate ([2]; 0 h, replicate number 1): -1; Growth Rate ([3]; 18 h, replicate number 1): 0.56; Growth Rate ([3]; 24 h, replicate number 1): 0.71 |
| COc1cc(C(=O)O)ncc1C#Cc1ccccc1NS(=O)(=O)c1cccc2c(N(C)C)ccnc12 [MSC-0516] | 0.61 | 0.68 | 0.86 | 0.75 | 0.8 |  | 0.44 |  |  |  |  |  |  | 0.92 | 0.91 | 0.9 | 0.77 | 0.99 | 0.93 |  | Growth Rate ([1]; 24 h, replicate number 1): 0.89; Growth Rate ([2]; 0 h, replicate number 1): -1; Growth Rate ([3]; 0 h, replicate number 1): -0.31; Growth Rate ([3]; 0 h, replicate number 2): -0.98 |
| COc1ccc(OC(=O)N(CC(=O)O)Cc2ccc(OCCc3nc(-c4ccccc4)oc3C)cc2)cc1 [MURAGLITAZAR] | 0.98 |  | 0.71 | 0.94 |  | 0.85 | 0.43 | 0.89 | 0.07 | 0.94 | 0.42 | 0.51 | 0.5 |  |  | 0.87 | 0.56 | 0.72 | 0.97 | -0.96 | Growth Rate ([2]; 12 h, replicate number 1): 0.76; Growth Rate ([2]; 18 h, replicate number 1): 0.79; Growth Rate ([3]; 0 h, replicate number 2): -1 |
| CC(C)N1CCN(Cc2cnc(-c3cc(-c4cccc5[nH]ccc45)cc4[nH]ncc34)o2)CC1 [NEMIRALISIB] | 0.94 |  | 0.36 | 0.64 |  | -0.06 |  | -0.37 | -0.48 | -0.09 | -0.01 | 0.15 | 0.32 | 0.83 | 0.64 | 0.6 | 0.83 | 0.75 | 0.85 | -0.99 | Growth Rate ([2]; 12 h, replicate number 1): 0.04; Growth Rate ([2]; 18 h, replicate number 1): 0.27; Growth Rate ([2]; 24 h, replicate number 1): 0.3; Growth Rate ([3]; 18 h, replicate number 1): 0.26; Growth Rate ([3]; 24 h, replicate number 1): 0.34 |
| FC(F)(F)c1ccc(Nc2ncnc3cc(-c4ncccc4C(F)(F)F)ccc23)cc1 [NGD-8243] |  |  | 0.82 | 0.71 | 0.96 | 0.97 | -1 |  |  |  | 0.89 | 0.92 | 0.88 | 0.94 | 0.8 | 0.88 | -0.24 | 0.27 | 0.37 |  | Growth Rate ([1]; 24 h, replicate number 1): 1; Growth Rate ([2]; 12 h, replicate number 1): -1 |
| CN1CCC[C@H]1c1cccnc1 [NICOTINE] | -1 | 0.16 | 0.24 | 0.66 |  |  | -0.93 | 0.4 | 0.38 | 0.64 | 0.75 | 0.76 | 0.85 |  | 0.77 | 0.86 |  |  |  | -0.33 | Growth Rate ([2]; 0 h, replicate number 2): -0.9; Growth Rate ([3]; 0 h, replicate number 1): 0.69; Growth Rate ([3]; 18 h, replicate number 1): 0.99; Growth Rate ([3]; 24 h, replicate number 1): 0.93 |
| COC(=O)c1ccc2c(c1)NC(=O)/C2=C(\Nc1ccc(N(C)C(=O)CN2CCN(C)CC2)cc1)c1ccccc1 [NINTEDANIB] | 0.08 | -0.05 |  |  | 0.97 |  |  | -0.42 |  | 0.57 |  |  |  |  |  | 0.99 |  |  |  | 0.64 | Growth Rate ([2]; 0 h, replicate number 1): 0.43; Growth Rate ([2]; 0 h, replicate number 2): -0.14; Growth Rate ([2]; 24 h, replicate number 1): 0.4 |
| CCOC(=O)C1=C(C)NC(C)=C(C(=O)OC)C1c1cccc([N+](=O)[O-])c1 (stereo unspecified) [NITRENDIPINE] | -0.99 | 0.47 | 0.51 | 0.71 |  |  |  | 0.11 | -0.36 |  | 0.63 | 0.99 | 0.95 | 0.89 | 0.86 | 0.9 |  |  | 0.95 | 0.22 | Growth Rate ([1]; 24 h, replicate number 1): 0.91; Growth Rate ([2]; 0 h, replicate number 1): -0.46; Growth Rate ([2]; 0 h, replicate number 2): -0.98; Growth Rate ([2]; 18 h, replicate number 1): -0.02 |
| CC(C)(O)[C@H]1CC[C@H](Nc2ccc3ncc(-c4cccc(C(F)(F)F)c4)n3n2)CC1 [NUVISERTIB] |  | 0.88 | 0.42 | 0.24 | 0.38 | -0.74 | -0.83 | -0.61 | -0.3 | -0.5 | -0.3 | -0.12 | -0.02 | 0.46 | 0.15 | 0.08 | -0.72 | -0.6 | -0.47 | -0.52 | Growth Rate ([1]; 24 h, replicate number 1): 0.32; Growth Rate ([2]; 12 h, replicate number 1): -0.53; Growth Rate ([2]; 18 h, replicate number 1): -0.46; Growth Rate ([2]; 24 h, replicate number 1): -0.39; Growth Rate ([3]; 0 h, replicate number 2): -0.24; Growth Rate ([3]; 18 h, replicate number 1): -0.39; Growth Rate ([3]; 24 h, replicate number 1): -0.27 |
| CC[C@H]1[C@@H](O)[C@@H]2[C@H](CC[C@]3(C)[C@@H]([C@H](C)CCC(=O)O)CC[C@@H]23)[C@@]2(C)CC[C@@H](O)C[C@@H]12 [OBETICHOLIC ACID] |  | -0.88 |  |  |  | 0.39 | 0.74 |  | 0.83 |  | 0.96 |  |  | 0.87 |  |  | 0.62 | 0.87 | 0.95 |  | Growth Rate ([2]; 12 h, replicate number 1): 0.91; Growth Rate ([2]; 18 h, replicate number 1): 0.82; Growth Rate ([2]; 24 h, replicate number 1): 0.9; Growth Rate ([3]; 0 h, replicate number 1): 0.42; Growth Rate ([3]; 0 h, replicate number 2): -0.65 |
